# In patent US5098613A, “Anti-inflammatory agents” (Eli Lilly and Company, priority 1990, dated 1992):
# Read-outs that look alike come from different tables or passages of the source.
# Molecular target: T1, leukotriene B4 specific receptor on the membrane of human neutrophils (Homo sapiens, UniProt Q15722)
# T1 construct: incubating neutrophils (1×10^7 cells) with 0.1-0.2 nM ^3 H-LTB4; endogenous in cells; host or cells: human peripheral blood neutrophils (buffy coats of two blood donors)
# Assay: Inhibition of Binding of ^3 H-LTB4 to Peripheral Human Neutrophils
# Details: for inhibition at 10 µM: read-out: LTB4 Binding Inhibition; for inhibition at 1 µM: drug concentration 10^-6 M; for inhibition at 0.1 µM: drug concentration 10^-7 M
# Method: The effectiveness of compounds to inhibit the binding of leukotriene B4 to a specific receptor on the membrane of human neutrophils was measured by using an adaptation of a radio-ligand binding assay developed by Goldman and Goetzl, J. Immunol., 129, 1600 (1982). Other investigators have developed similar assays (see, e.g., Kreisle, et al., J. Exp. Med., 157, 628 (1983) and Lin, et al., Prostaglandins, 28, 837 (1984)).
# Cells used in the assay were isolated by standard techniques of centrifugation on Ficol-Hypaque, dextran 70 sedimentation and hypotonic lysis. The following procedure was used. Freshly-prepared buffy coat layers from two individuals were obtained from a local blood donor center. The cells were mixed and diluted to 484 ml. with phosphate buffered saline containing heparin (10 units/ml) and heat-inactivated calf serum (5%). This was divided into 20 ml. aliquots and the aliquots layered on top of Ficoll-Paque (12 ml.). The material was then centrifuged at 500 g. for 40 minutes at room temperature. The resulting upper layer of platelets and mononuclear cells was discarded. The lower layer containing erythrocytes and neutrophils was retained. Buffer was added (1 ml. per 4 ml. of lower layer) and the suspension mixed. For each milliliter of this mixture, 0.33 ml. of 6% Macrodex was added. After stirring, the cels were allowed to sediment for 1 hour at 37° C. The resulting erythrocyte pellet was discarded and the neutrophil enriched supernatant fluid centrifuged at 500 g. for 10 minutes at 4° C. Erythrocytes still present in this cell pellet were lysed by incubating the cells with 5-8 ml. ice-cold distilled water for 30-45 seconds. Subsequently, the volume was made up to 50 ml. by addition of ice-cold buffer and the cells resuspended. The suspension was then centrifuged at 300 g. for 10 minutes at 4° C. The cells were finally resuspended at a cell density of 2×10^7 cells/ml in the assay buffer. This buffer Consisted of Hanks' balanced salt solution and 0.1% ovalbumin (pH 7.3).
# The radio-ligand binding assay was conducted by incubating neutrophils (1×10^7 cells) with 0.1-0.2 nM ^3 H-LTB4 (sp. act. 150-220 Curies/mmol) and test compound (1×10^-5 M and 1×10^-6 M) for 10 minutes at 4° C. The amount of bound ^3 H-LTB4 was then measured and compared with the amount bound in the absence of test compound. The assay was carried out in microcentrifuge tubes by adding first 10 μl test compound dissolved in DMSO, followed by adding 20 μl ^3 H-LTB4 diluted in assay buffer, and finally adding 500 μl of the cell suspension pension. At the end of the 10 minutes incubation, 300 μl of a mixture of dibutyl and dinonyl phthalate (7:2) were added and the tubes centrifuged for 2 minutes in a microcentrifuge. The radioactivity bound to the cell pellet was measured by scintillation spectroscopy. Appropriate corrections for nonspecific bonding of ^3 H-LTB4 were made.
# [1] = drug concentration 10^-5 M, 4° C., 10 minutes
# T1 sequence (Q15722 whole entry): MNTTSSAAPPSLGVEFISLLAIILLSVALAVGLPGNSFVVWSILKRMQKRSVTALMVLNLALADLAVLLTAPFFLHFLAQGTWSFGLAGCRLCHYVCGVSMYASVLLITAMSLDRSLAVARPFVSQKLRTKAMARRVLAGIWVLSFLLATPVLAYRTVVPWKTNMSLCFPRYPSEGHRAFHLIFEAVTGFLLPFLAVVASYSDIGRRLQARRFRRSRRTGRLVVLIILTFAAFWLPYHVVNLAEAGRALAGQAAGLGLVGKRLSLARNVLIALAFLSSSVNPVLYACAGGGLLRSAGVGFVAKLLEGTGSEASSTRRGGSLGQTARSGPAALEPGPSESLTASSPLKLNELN
Compound,inhibition at 10 µM [1] [%],"inhibition at 1 µM (4° C., 10 minutes) [%]","inhibition at 0.1 µM (4° C., 10 minutes) [%]",inhibition at 10 µM [%]
"C=CCc1cc(C(C)=O)c(O)cc1OCCCCCC(=O)N(C)C [Example 97, 6-(4-Acetyl-5-hydroxy-2-allylphenoxy)-N,N-dimethylhexanamide]",91,53,,
"C=CCc1cc(C(=O)c2ccccc2)c(O)cc1OCCCCC#N [Example 104, 5-(4-Benzoyl-5-hydroxy-2-allylphenoxy)pentanenitrile]",32,5,,
"CCc1cc(C(C)=O)c(O)cc1OCc1cccc(C(F)(F)F)c1 [Example 58, 5-Ethyl-2-hydroxy-4-(3-trifluoromethyl-benzyloxy)acetophenone]",67,22,,
"C=CCc1cc(C(C)=O)c(O)cc1OCCCC#N [Example 26, 4-(4-Acetyl-5-hydroxy-2-allylphenoxy)-butanenitrile]",46,5,,
"C=CCc1cc(C(C)=O)c(O)cc1OCCCCCC(=O)O [Example 86, 6-(4-Acetyl-2-allyl-5-hydroxyphenoxy)hexanoic acid]",73,23,,
"CCc1cc(C(C)=O)c(O)cc1OCCCCCCC(=O)NC [Example 99, 7-(-Acetyl-2-ethyl-5-hydroxyphenoxy)N-methylheptanamide]",,54,,97
"C=CCc1cc(C(C)=O)c(O)cc1OCCCCCC[S+](C)[O-] (centres unmarked) [Example 79, 2-Hydroxy-4-[6-(methylsulfinyl)hexyloxy]-5-allylacetophenone]",96,51,,
"C=CCc1cc(C(C)=O)c(O)cc1OCCCCCCCCCCC#N [Example 70, 11-(4-Acetal-5-hydroxy-2-allylphenoxy)-undecanenitrile]",50,14,,
"C=CCc1cc(C(C)=O)c(O)cc1OCCCCCCC [Example 37, 4-(Heptyloxy)-2-hydroxy-5-allylacetophenone]",31,8,,
"C=CCc1cc(C(C)=O)c(O)cc1OCCCCC [Example 41, 4-Pentyloxy-2-hydroxy-5-allylaceto-phenone]",59,22,,

# Now from value to compound, other results behind:
inhibition at 10 µM [1] [%],"inhibition at 1 µM (4° C., 10 minutes) [%]","inhibition at 0.1 µM (4° C., 10 minutes) [%]",Compound,inhibition at 10 µM [%]
83,38,,"CCCc1cc(C(C)=O)c(O)cc1OCCCCC#N [Example 118, 5-(4-Acetyl-5-hydroxy-2-propylphenoxy)-pentanenitrile]",
105,103,78,"CCc1cc(CC)c(OCCCCCC(C)(C)c2nnn[nH]2)cc1O [Example 151, 2,4-Diethyl-5-{[6-methyl-6-(1H-tetrazol-5-yl)heptyl]oxy}phenol]",
47,7,,"COCc1cc(C(C)=O)c(O)cc1OCCCCCCC#N [Example 129, 7-[4-Acetyl-5-hydroxy-2-(methoxymethyl)phenoxy]-hdptanentrile]",
63,20,,"CCc1cc(C(C)=O)c(O)cc1OCCCCc1nnnn1CC(=O)O [Example 144, 5-[4-(4-Acetyl-2-ethyl-5-hydroxyphenoxy)-butyl]-1H-tetrazole-1-acetic acid]",
34,5,,"CCOC(=O)Cn1nnnc1CCCCOc1cc(O)c(C(C)=O)cc1CC [Example 142, 5-[4-(4-acetyl-2-ethyl-5-hydroxyphenoxy)butyl]-1H-tetrazole-1-acetic acid, ethyl ester]",
76,35,,"C=CCc1cc(C(=O)CC)c(O)cc1OCCCCC#N [Example 105, 5-[5-Hydroxy-4-(1-oxopropyl)-2-allylphenoxy]pentanenitrile]",
,41,3,"CCc1cc(C(C)=NO)c(O)cc1OCCCCCC(C)(C)C(=O)O [Example 152, 7-{4-[-(Hydroxyimino)ethyl]-2-ethyl-5-hydroxyphenoxy}-2,2-dimethylheptanoicacid]",
